Data set [1] has as its system 4T1-luciferase homografts. The experiment in a line: Orthotopic syngeneic homograft, combination study. As to conditions: BALB/c mice, day 16; NCK 20 mg/kg, OSI 50 mg/kg, CRI 50 mg/kg. In kind it is in vivo. The procedure:
In vivo bioluminescent imaging was performed to determine the incidence and metastatic burden of luciferase-labeled 4T1 cells. Mice were injected i.p. with 10 mg/ml of D-luciferin (Gold Biotechnology, MO, USA) and imaged using a PerkinElmer IVIS Spectrum system. PDX were generated as previously described by transplanting fresh fragments orthotopically into 8-week-old female nonobese diabetic (NOD)/severe combined immunodeficient (SCID) mice (Beijing Vital River Laboratory Animal Technology Co., Beijing, China) (P1, passage 1)[40]. The P1 xenografts were then fragmented, digested into single-cell suspension and implanted into mammary fat pad (100 μL PBS containing growth factor reduced 50% Matrigel) of NOD/SCID mice. Once orthotopic xenografts reached an approximate size of 100 mm^3, the mice were randomly divided into three groups (n = 8) for single drug studies and six groups (n = 6) for combination studies and Kaplan-Meier (KM) analyses. […] Animal body weight and xenograft size were measured daily using an electronic balance and a digital caliper, respectively. Xenograft volume (mm^3) was calculated by using the formula: 0.52 × length × [width]^2. Complete response (CR) was achieved if the average xenograft volume for the treatment group was unable to be determined for two or more consecutive measurements. Partial response (PR) was achieved if the average xenograft volume reduced to <50 mm^3 for two or more consecutive measurements. After 3-week drug treatment, all mice were sacrificed by CO2 inhalation. Tumor and vital organs were weighed and isolated for further analysis. IHC analysis of xenograft histology sections and quantitative polymerase chain reaction (qPCR) were performed as previously described. […]
model was measured every day and calculated by using the formula: 0.52 × length × [width]2.
The animal weight of each treatment group is indicated. […]
treatment group after sacrifice on the 15th day of treatment. (C) Bioluminescence of homografts from mice orthotopically implanted with 4T1-luciferase cells. (D) Resected homografts from each treatment group.
(F) Histological analyses and IRS scoring of pBAD at Ser99, BAD, MKI67, and TUNEL staining in homografts. Scale bar, 20 µm. […]
kidney weights (%, organ body index) and colon length of BALB/c mice administrated with […]
represent means ± SD ( n=6).*P < 0.05, **P < 0.01, and ***P < 0.001.

The test system of the next data set is VEGFR2. As to conditions: read-out: potency on VEGFR2; cited from earlier work.
The subject of data set [2] is MDA-MB-231 cells. In words: Cambridge cancer compound library screen in combination with NCK. In kind it is cell-based, human. As to conditions: compound at IC25 with NCK 0.1, 1, 10 μM, 72 h, AlamarBlue. (Alamar Blue is a resazurin reagent that responds to reducing activity.)
Protocol: Cancer compound library screening was performed using IC25 values of anti-cancer compounds (predicted with Genomics of Drug Sensitivity in Cancer (https://www.cancerrxgene.org/) and NCK at 3-point dilutions (0.1, 1, 10 μM) in medium containing 2% FBS to identify potential synergistic combinations. In detail, MDA-MB-231 cells (5 ×10^3) were seeded in 96-well plates in 80 μl of culture medium (2% FBS) and allowed to settle overnight. 24-hour post-seeding, 10 μl of compounds dissolved in culture medium were prepared and added to the plates to reach a final concentration of IC25 of the respective compound. 10 μl of NCK was also added into cell plates to yield a final concentration of 0.1, 1 or 10 μM. After 72-hours of treatment, cell viability was determined with AlamarBlue reagent and fluorescence was measured using a Tecan microplate reader, as previously described[29].
Data set [3] concerns MDA-MB-231 cells. The experiment in a line: Cell survival after siRNA-BAD or scrambled control and NCK. In kind it is cell-based, human. The text has this: To confirm the functional specificity of NCK to BAD, the effect of NCK treatment after siRNA-mediated depletion of BAD expression was examined in MDA-MB-231 cells. […] Consistent with previous findings[32]–[34], no significant changes in cell viability nor CASPASE 3/7 activity were observed upon transfection of siRNA directed to the BAD transcript (Fig. 2g–i).

In another data set the test system is BT549 cells. The experiment in a line: Annexin V-PI apoptosis flow cytometry. As to conditions: BT549, 5 μM.
A short description of data set [4]: Pharmacokinetics after IV and oral administration. Type of data set: in vivo, Sprague-Dawley (SD) rats. Also noted: AUClast/D: unit not given here. As to conditions: SD rats; for MRT inf: read-out: MRTInf_obs. The procedure:
The pharmacokinetics of NCK were determined via intravenous (IV) and oral administration in Sprague-Dawley (SD) rats (Supplementary Fig. 7).
Supplementary Figure 7: (A) Plasma concentration of NCK after intravenous (IV, 1 mg/kg) (red) or oral (PO, 10 mg/kg) (blue) administration in SD rats. Results represent the mean ± SD of three animals. (B) Pharmacokinetic parameters of NCK in plasma after IV injection (1 mg/kg) or oral administration (10 mg/kg). AUCinf: Area Under the Plasma Concentration-Time Curve from t=0 to infinity; AUClast: Area Under the Plasma Concentration-Time Curve from t=0 to last measurable positive concentration; AUC_%Extrap_obs: Percent Extrapolated AUC from tlast to infinity; C0: Initial concentration in plasma; Cmax: Peak concentration in plasma; Cl_obs:
Plasma systemic clearance; F: Absolute oral bioavailability; MRTInf_obs: Mean residence time from t=0 to infinity ;T1/2: Elimination half- life; Tmax: Time of peak concentration in plasma; Vss_obs: Volume of Distribution at Steady- state

For another data set, the target named is T1, Recombinant human BAD (Homo sapiens, UniProt Q92934).
T1 construct: purchased Novoprotein, Suzhou, China
The experiment in a line: SPR (BIAcore) with BAD immobilized on sensor chip. Type of data set: binding. Conditions: analyte 1.25–160 μM. The procedure:
To compare the binding affinity of NCK and NPB towards BAD, we performed surface plasmon resonance (SPR) measurement by immobilizing BAD protein on a sensor chip with NCK or NPB as analyte. Representative reference-subtracted overlaid sensorgrams and the kinetic parameters are specified in Fig. 2d and Supplementary Fig. 6A. […] Additionally, the pharmacological inhibition of BAD phosphorylation by NCK or NPB in TNBC cells was evaluated. […] Furthermore, the comparative potencies of NPB and NCK were evaluated in eight TNBC cell lines using total cell number assay in 2D culture and cell viability in 3D culture (Supplementary Fig. 6C, D).
(In general: SPR reads the build-up and loss of mass on a sensor chip optically.)

Another data set has as its system TNBC cell lines. In words: 2D total cell number and 3D viability in eight TNBC cell lines. Type of data set: cell-based, human.
[5] abbreviates: Sprague-Dawley, rat, plasma, IV 1 mg/kg.
Setting [6] is: Sprague-Dawley, rat, plasma, PO 10 mg/kg.

Read-outs that look alike come from different tables or passages of the source.

T1 sequence (Q92934 whole entry): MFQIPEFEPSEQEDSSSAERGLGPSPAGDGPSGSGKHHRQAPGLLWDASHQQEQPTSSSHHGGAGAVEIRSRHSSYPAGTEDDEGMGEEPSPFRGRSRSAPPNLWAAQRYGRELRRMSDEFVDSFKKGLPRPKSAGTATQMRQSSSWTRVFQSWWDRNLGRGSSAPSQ
Description for BT549 cells: Representative flow cytometry plots of Annexin-V and propidium iodide (PI) stained apoptotic
or NPB using flow cytometry analysis. Annexin V-FITC staining is indicated on the x axis, and PI staining is indicated on the y axis. The lower left quadrants represent live cells, the lower right quadrants represent early apoptotic cells, the upper left quadrants represent necrotic cells, and the upper right quadrants display late apoptotic cells. Acquisition of Annexin V and PI data are presented as a percentage (%) in each quadrant. Early apoptotic cells are referred to as Annexin- V positive and late apoptotic cells are referred to as Annexin-V and PI double positive.

Consider `O=C(Nc1ccc(OC(F)(F)F)cc1)c1sccc1NCc1ccnc2ccccc12` [OSI-930], for which, in data set [1], the “Colon Length” value is on record as 9.33±1.26 cm and the “Relative Kidney Weight” value was found to be 1.34±0.02%. In addition, the IC50 with VEGFR2 is 0.009 µM. Besides, the “synergy with NCK in compound library screen (CI, Bliss independence)” value in the data set with MDA-MB-231 cells [2] is “low CI (high synergy)”.
The term AUC(0-inf) denotes the area under the concentration-time curve extrapolated to infinity. Broadly, the AUC(0-t) is the area under the concentration-time curve up to a stated or last time point. Usually half-life stands for how long it takes for the measured level to halve. The term bioavailability denotes dose-corrected exposure relative to a reference, in per cent. As a reminder, the Cmax is the maximum level reached in the sampled fluid or tissue. The Tmax is the time at which the peak concentration occurs. One may read the Kd as a measure of binding affinity in units of concentration. In the case of `Oc1ccccc1C(c1cccnc1)N1CCN(c2cccc(Cl)c2Cl)CC1` (stereo not shown) [NCK, 2-((4-(2,3-dichlorophenyl)piperazin-1-yl)(pyridin-3-yl)methyl) phenol], in data set [1], the “Colon Length” value worked out at 9.02±1.54 cm, the “Relative Heart Weight” value turned out to be 0.61±0.11%, the “Relative Kidney Weight” value amounted to 1.40±0.16% and the “Relative Liver Weight” value amounted to 4.98±0.21%. For the same molecule, in data set [1], the “Relative Lung Weight” value amounted to 0.87±0.11% and the “Relative Spleen Weight” value came to 2.24±0.40%. The “cell viability vs vehicle” value with MDA-MB-231 cells [3] (MDA-MB-231, 5 μM NCK) is recorded as “decreased cell viability”. Also, the “effect on cell viability and CASPASE 3/7 activity after siRNA-mediated depletion of BAD” value in the data set on MDA-MB-231 cells [3] (MDA-MB-231, siRNA-BAD, 5 μM NCK) is “abolished the effect of NCK”. In addition, the “induction of apoptosis (early and late)” value in the data set on BT549 cells was “more potent effect than NPB in inducing apoptosis”. In data set [4] (IV 1 mg/kg), the AUC_%Extrap_obs is on record as 2.51%, the AUClast/D is listed as 280 and the Vss_obs amounted to 5.93 L/kg. In data set [4] (PO 10 mg/kg), this molecule came in with an AUC_%Extrap_obs of 2.14% and an AUClast/D of 105. In data set [4] (setting [5]), this molecule had an AUC(0-inf) of 288 ng·h/mL, an area under the curve AUC(0-t) of 280 ng·h/mL, a C0 of 554 ng/mL and a half-life of 3.35 h. The MRT inf in data set [4] (setting [5]) was 1.72 h. Also, the bioavailability in data set [4] (Sprague-Dawley, rat, plasma, PO 10 mg/kg vs IV 1 mg/kg, read-out: F (absolute oral bioavailability)) is 37.2%. Also, in data set [4] (setting [6]), the area under the curve AUC(0-inf) turned out to be 1070 ng·h/mL, the AUC(0-t) is 1050 ng·h/mL, the Cmax was 346 ng/mL and the time to peak (Tmax) worked out at 0.33 h. Besides, in data set [4] (setting [6]), the half-life was 2.68 h and the MRT inf stood at 4 h. The clearance in data set [4] (Sprague-Dawley, rat, IV 1 mg/kg, plasma, read-out: Cl_obs (clearance)) amounted to 58.3 mL/min/kg. For the same molecule, the dissociation constant Kd on Recombinant human BAD (read-out: Affinity (KD)) came to 0.0481 µM. Besides, the kon on Recombinant human BAD (read-out: Association (Ka)) turned out to be 111000 M⁻¹ s⁻¹. Also, the “potency vs NPB in reducing 2D and 3D cell viability” value with TNBC cell lines is “more potent than NPB”.

These data come from article PMC10781691, “Vertical pathway inhibition of receptor tyrosine kinases and BAD with synergistic efficacy in triple negative breast cancer” (NPJ Precision Oncology, 2024).
